Source: US8034748B2, “Additives for inhibiting the formation of gas hydrates” (Clariant Produkte (Deutschland) GmbH, priority 2001, dated 2011)

Test: Test as antiagglomerant (agglomerate inhibition) in stirred steel autoclave
Conditions: 5 000 ppm additive based on aqueous phase; water and white spirit 1:2; gas 1, 90 bar; 2° C. for 25 hours
Protocol: To investigate the inhibiting action of the compounds according to the invention, a stirred steel autoclave having temperature control, pressure and torque sensor having an internal volume of 450 ml was used. For investigations of kinetic inhibition, the autoclave was filled with distilled water and gas in a volume ratio of 20:80, and, for investigations of agglomerate inhibition, condensate was additionally added. Finally, natural gas was injected at different pressures.
Starting from a starting temperature of 17.5° C., the autoclave was cooled to 2° C. within 2 h, then stirred at 2° C. for 18 h and heated back up to 17.5° C. within 2 h. An initial pressure decrease corresponding to the thermal compression of the gas is observed. When the formation of gas hydrate nuclei occurs during the supercooling time, the pressure measured falls, and an increase in the torque measured and a slight increase in temperature can be observed. Without inhibitor, further growth and increasing agglomeration of the hydrate nuclei lead rapidly to a further increase in the torque. When the mixture is heated, the gas hydrates decompose, so that the starting state of the experimental series is attained.
On the other hand, the torque measured in the autoclave serves as a parameter for the agglomeration of the hydrate crystals. The pressure drop measured (Δp) allows a direct conclusion on the amount of hydrate crystals formed.
Gas 1: 79.3% methane, 10.8% ethane, 4.8% propane, 1.9% butane, 1.4% carbon dioxide, 1.8% nitrogen. Supercooling below the equilibrium temperture of hydrate formation at 50 bar: 12° C.
In order to test the effectiveness as agglomerate inhibitors, the test autoclave used above was initially charged with water and white spirit (20% of the volume in a ratio of 1:2) and, based on the aqueous phase, 5 000 ppm of the particular additive were added. At an autoclave pressure of 90 bar using gas 1 and a stirrer speed of 5 000 rpm, the temperature was cooled from initially 17.5° C. within 2 hours to 2° C., then the mixture was stirred at 2° C. for 25 hours and heated again. The pressure drop caused by hydrate formation and the resulting torque at the stirrer, which is a measure of the agglomeration of the gas hydrates, were measured.

| SMILES | Pressure drop Δ p [bar] | Temperature rise Δ T [K] | Torque Mmax [Ncm] |
| --- | --- | --- | --- |
| CCCCC(CC)COC(=O)COCC[N+](C)(CCCC)CCOCC(=O)OCC(CC)CCCC.COS(=O)(=O)[O-] (stereo not drawn) [Example 50] | 10.1 | 0.1 | 0.2 |
| CCCCC(CC)COC(=O)COCC[N+](C)(CCOCC(=O)OCC(CC)CCCC)C1CCCC1.COS(=O)(=O)[O-] (stereo not drawn) [Example 46] | 15.1 | 0.3 | 0.3 |
| CCCCC(CC)COC(=O)COCC[N+](C)(CCOCC(=O)OCC(CC)CCCC)C1CCCCC1.COS(=O)(=O)[O-] (stereo not drawn) [Example 48] | 15.3 | 0.7 | 0.4 |
